{"source": "patent US6933126B2", "about": "“Membrane transportable fluorescent substrates” (Applera Corporation, priority 2001, dated 2005)", "key": {"[1]": {"biological_target": "T1, β-galactosidase in Psi-2-BAG-α cells (Escherichia coli, UniProt P00722)", "T1 construct": "expressed in transfected cells; host or cells: Psi-2-BAG-α cells (own knowledge: mouse NIH-3T3-derived psi-2 packaging line stably carrying the BAG lacZ retroviral vector)", "T1 sequence (P00722 whole entry)": "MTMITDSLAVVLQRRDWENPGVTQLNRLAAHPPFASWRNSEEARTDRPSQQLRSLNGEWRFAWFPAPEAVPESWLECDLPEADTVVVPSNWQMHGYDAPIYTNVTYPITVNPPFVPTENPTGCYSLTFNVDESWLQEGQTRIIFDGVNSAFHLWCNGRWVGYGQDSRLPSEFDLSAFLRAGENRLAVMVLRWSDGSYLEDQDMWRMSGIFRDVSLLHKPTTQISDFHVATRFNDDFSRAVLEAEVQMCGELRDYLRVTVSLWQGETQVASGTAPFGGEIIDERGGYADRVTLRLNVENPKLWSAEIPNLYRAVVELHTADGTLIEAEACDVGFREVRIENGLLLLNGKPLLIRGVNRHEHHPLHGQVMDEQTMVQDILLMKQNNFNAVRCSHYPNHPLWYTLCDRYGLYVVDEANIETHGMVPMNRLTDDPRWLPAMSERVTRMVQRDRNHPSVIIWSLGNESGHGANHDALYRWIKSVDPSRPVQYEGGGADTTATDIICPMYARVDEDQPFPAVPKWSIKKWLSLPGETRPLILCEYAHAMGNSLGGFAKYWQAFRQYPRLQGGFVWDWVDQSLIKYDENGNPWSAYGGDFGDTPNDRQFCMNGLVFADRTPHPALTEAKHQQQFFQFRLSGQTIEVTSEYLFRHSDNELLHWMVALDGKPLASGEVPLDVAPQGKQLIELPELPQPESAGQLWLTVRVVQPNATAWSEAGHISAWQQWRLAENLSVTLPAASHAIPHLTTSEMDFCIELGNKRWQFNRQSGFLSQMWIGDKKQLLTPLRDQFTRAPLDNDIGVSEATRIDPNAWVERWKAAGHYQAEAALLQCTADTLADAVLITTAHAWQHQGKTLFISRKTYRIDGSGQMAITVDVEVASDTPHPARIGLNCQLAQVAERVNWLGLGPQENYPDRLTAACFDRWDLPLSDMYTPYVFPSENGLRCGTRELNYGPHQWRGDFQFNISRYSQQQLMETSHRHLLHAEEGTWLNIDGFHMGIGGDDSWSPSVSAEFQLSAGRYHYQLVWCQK", "experiment": "FDG detection of β-galactosidase in Psi-2-BAG-α cells, passive load vs \"SUPERFECT\" complex", "type": "cell-based", "settings": "for Fluorescence (w \"SUPERFECT\") / Fluorescence (w/o \"SUPERFECT\"): Cells + Supernatant, 2 hrs, ex 485/20, em 530/25; for Fluorescence (w \"SUPERFECT\"): 0.6 mM FDG with 25 μl \"SUPERFECT\" carrier; for Fluorescence (w/o \"SUPERFECT\"): 0.6 mM FDG, passive load", "method": "A first experiment was conducted to determine the effect of complex formation on FDG detection of β-galactosidase in Psi-2-BAG-α cells. First, FDG detection was measured using FDG without a transporter or carrier complexed thereto (passive load). This measured value was compared to a measurement using a complex of FDG and an activated polyamino dendrimer (e.g., “SUPERFECT”, which is a trademark of Qiagen N.V.).\nFor the passive load test, two vials of cells were prepared. First, two vials each having 330,000 psi-2-BAG-α cells suspended in 250 μl 0.6 mM FDG in Opti-MEM were prepared. A first vial of cells was incubated at 4° C. for 2 hrs and the second vial of cells was incubated at 37° C. for 2 hrs.\nFor the polyamino dendrimer complex, two vials of cells were prepared in the following manner. First, two vials each having 330,000 psi-2-BAG-α cells suspended in 250 μl 0.6 mM FDG in Opti-MEM containing 25 μl “SUPERFECT” as a polycationic carrier were prepared. The first vial of cells was incubated at 4° C. for 2 hrs and the second vial of cells was incubated at 37° C. for 2 hrs.\nFollowing incubation, 20 μl triplicate samples of the above four cell suspensions (passive/4° C., passive/37° C., “SUPERFECT”/4° C., “SUPERFECT”/37° C.) were added to a 96-well plate.\n(§1) The 96-well plate was read on a Cytofluor 4000 with excitation filter 485/20 and emission filter 530/25. The data was analyzed as triplicate averages."}, "[2]": {"system": "β-galactosidase complementation in FRAP/FKBP12 (B14) cells", "experiment": "FDG detection of rapamycin-induced β-galactosidase complementation in FRAP/FKBP12 (B14) cells", "type": "cell-based", "settings": "for Fluorescence (w \"SUPERFECT\") / Fluorescence (w/o \"SUPERFECT\"): 90 min at 37° C.; for Fluorescence (w \"SUPERFECT\"): 0.6 mM FDG with \"SUPERFECT\" carrier; for Fluorescence (w/o \"SUPERFECT\"): 0.6 mM FDG, passive load; for Fluorescence signal to noise ratio (S/N): Induced cells", "method": "A second experiment was conducted to determine the effect of fluorescent substrate complex formation on FDG detection of rapamycin-induced β-galactosidase complementation in FRAP/FKBPI2 (B14) cells.\nA 96-well plate was plated with FRAP/FKBP12 cells at 10,000 cells per well. Half of the cells were incubated overnight with rapamycin to induce β-galactosidase complementation. The next day, the cells were washed with Opti-MEM. Half of the cells were incubated for 90 min at 37° C. with 254 μl 0.6 mM FDG (fluorescein-di-β-D-galactoside) in Opti-MEM. The remaining cells were incubated 90 min at 37° C. with 0.6 mM FDG, containing “SUPERFECT” as a carrier (14 μl “SUPERFECT” in 240 μl 0.6 mM FDG in Opti-MEM).\nas §1"}, "[3]": {"settings": "Induced cells (rapamycin overnight)"}}, "data": [{"smiles": "O=C1OC2(c3ccc(O[C@@H]4O[C@H](CO)[C@H](O)[C@H](O)[C@H]4O)cc3Oc3cc(O[C@@H]4O[C@H](CO)[C@H](O)[C@H](O)[C@H]4O)ccc32)c2ccccc21", "note": "[FDG, fluorescein di-β-D-galactopyranoside]", "values": [{"measurement": "Fluorescence (w \"SUPERFECT\")", "setting": "[1]; 4° C.", "value": "8,343"}, {"measurement": "Fluorescence (w/o \"SUPERFECT\")", "setting": "[1]; 4° C.", "value": 807}, {"measurement": "Fluorescence (w \"SUPERFECT\")", "setting": "[1]; 37° C.", "value": "33,943"}, {"measurement": "Fluorescence (w/o \"SUPERFECT\")", "setting": "[1]; 37° C.", "value": 2492}, {"measurement": "Increase of fluorescence signal with Superfect-assisted load", "setting": "[1]; Superfect-assisted load of FDG vs passive load", "value": "≥ 10", "unit": "fold"}, {"measurement": "Fluorescence (w \"SUPERFECT\")", "setting": "[2]; [3]", "value": "12,721"}, {"measurement": "Fluorescence (w/o \"SUPERFECT\")", "setting": "[2]; [3]", "value": 594}, {"measurement": "Fluorescence signal to noise ratio (S/N)", "setting": "[2]; \"SUPERFECT\" assisted load of FDG", "value": "approximately 37"}, {"measurement": "Fluorescence signal to noise ratio (S/N)", "setting": "[2]; uncomplexed or passive load of FDG (w/o \"SUPERFECT\")", "value": "about 2"}, {"measurement": "Fluorescence (w \"SUPERFECT\")", "setting": "[2]; Uninduced cells", "value": 338}, {"measurement": "Fluorescence (w/o \"SUPERFECT\")", "setting": "[2]; Uninduced cells", "value": 253}]}]}
